Key:
Experiment in all cases: In vitro cytotoxicity assay (resazurin reduction test)
Assay type in all cases: cell-based
[1] = system: Normal human fibroblasts; details: Fibroblast, 48-h continuous drug exposure
Text: (§1) Normal human fibroblasts were purchased from Promocell (Heidelberg, Germany). This frozen culture was obtained from foreskin waste and the cells used in this work were from the seventh to twelfth passage of the culture. M4Beu, a human melanoma cell line, was established in the laboratory of Dr. J. F. Doré (INSERM, Unit 218, Lyon, France) from metastatic biopsy specimens and maintained in cell culture for almost 20 years in our lab. Breast cancer adenocarcinoma MCF 7, prostatic adenocarcinoma PC 3, colon adenocarcinoma DLD-1, lung non-small cell carcinoma A 549, ovary adenocarcinoma PA1 human cell lines and L 929 murine cell line were purchased from the European Collection of Cell Cultures (ECACC; Salisbury, United Kingdom). Murine Melanoma B16 was purchased from American Type of Culture Collection (ATCC, Manassas, USA) and murine colon carcinoma cell line CT-26 was obtained from Dr I. J. Fidler (University of Texas M.D. Anderson Cancer Center, Houston).
(§2) Stock cell cultures were maintained as monolayers in 75cm^2 culture flasks in Glutamax Eagle's minimum essential medium with Earle's salts (MEM; Gibco BRL, Paisley, UK) supplemented with 10% fetal calf serum (Sigma, St Quentin Fallavier, France), 1 mM sodium pyruvate (Gibco), 1X vitamins solution (Gibco), 1X non essential amino acids solution (Gibco) and 4 µg/ml of gentamicine (Gibco). Cells were grown at 37°C in a humidified atmosphere containing 5% CO2.
(§3) Cells were plated at a density of 5 x 10^3 cells per well in 96-well microplates (Nunclon™, Nunc, Roskilde, Denmark) in 150 µl of culture medium and were allowed to adhere for 16 h before treatment with the compound tested.
(§4) Stock solution of each compound was prepared in dimethylsulfoxide (DMSO) and kept at -20°C. until use. The percentage of DMSO was kept at 0.5% (v/v) whichever the concentration tested. […] Fifty microliters of a 4X solution in MEM was then added and a 48-h continuous drug exposure protocol was used. Then, the cytotoxic effect of compounds on tumour cells was tested by using Resazurin reduction test.
(§5) Resazurin was identified as the Alamar blue dye (O'Brien, J. et al.; European Journal of Biochemistry, 267, 5421-6, (2000)). The resazurin reduction test (RRT) was carried out according to the protocol described here. Briefly, plates were rinsed by 200 µl PBS (37° C, Gibco) using a multichannel dispenser (Labsystems, Helsinki, Finland) and emptied by overturning on absorbent toweling. Then, 150 µl of a 25 µg/ml solution of resazurin in MEM without SVF nor Phenol red was added in each well. The plates were incubated 1 h at 37° C. in an humidified atmosphere with 5% of CO2 for fluorescence development by living cells. Fluorescence was then measured on the automated 96-well plate reader Fluoroskan Ascent FL™ (Labsystems) using an excitation wavelength of 530 nm and an emission one of 590 nm.
(§6) Cytotoxic activity has been tested against the six human tumour cell lines breast adenocarcinoma MCF-7, colon adenocarcinoma DLD-1, ovary adenocarcinoma PA1, prostatic adenocarcinoma PC3, lung carcinoma A549, melanoma M4Beu and a primary culture of human fibroblasts.

[2] = system: colon adenocarcinoma DLD-1; details: Homo sapiens, DLD1, 48-h continuous drug exposure
Text: as §1, §2, §3, §4, §5, §6

[3] = system: prostatic adenocarcinoma PC 3; details: Homo sapiens; PC3; 48-h continuous drug exposure
Text: as §1, §2, §3, §4, §5, §6

[4] = system: Breast cancer adenocarcinoma MCF 7; details: Homo sapiens; MCF7; 48-h continuous drug exposure
Text: as §1, §2, §3, §4, §5, §6

[5] = system: M4Beu, a human melanoma cell line; details: 48-h continuous drug exposure
Text: as §1, §2, §3, §4, §5, §6

[6] = system: lung non-small cell carcinoma A 549; details: Homo sapiens; A549; 48-h continuous drug exposure
Text: as §1, §2, §3, §4, §5, §6

[7] = system: ovary adenocarcinoma PA1; details: Homo sapiens, 48-h continuous drug exposure
Text: as §1, §2, §3, §4, §5, §6

[8] = system: murine colon carcinoma cell line CT-26; details: Mus musculus; CT26; 48-h continuous drug exposure
Text: as §1, §2, §3, §4, §5

[9] = system: Murine Melanoma B16; details: Mus musculus, 48-h continuous drug exposure
Text: as §1, §2, §3, §4, §5

Row | SMILES | IC50 [1] [µM] | IC50 [2] [µM] | IC50 [3] [µM] | IC50 [4] [µM] | IC50 [5] [µM] | IC50 [6] [µM] | IC50 [7] [nM] | IC50 [8] [nM] | IC50 [9] [µM]
1 | CC(=O)OC[C@H]1O[C@@H](NC(=O)NCCCc2ccc(N(CCCl)CCCl)cc2)[C@H](F)[C@@H](OC(C)=O)[C@@H]1OC(C)=O [Compound 17a, N-(3,4,6-tri-O-acetyl-2-deoxy-2-fluoro-β-D-glucopyranosyl)-N'-{3-(4-[bis(2-chloroethyl)amino]phenyl)propyl}urea] | 13 ± 2 | 7 ± 3 | 4 ± 1 | 26.4 ± 0.6 | 27 ± 11 | 8 ± 2 | 600 ± 200 | – | –
2 | CC(=O)OC[C@H]1O[C@@H](NC(=O)c2ccc(NC(=O)CCCc3ccc(N(CCCl)CCCl)cc3)cc2)[C@H](F)[C@@H](OC(C)=O)[C@@H]1OC(C)=O [Compound 20a, N-(3,4,6-tri-O-acetyl-2-deoxy-2-fluoro-β-D-glucopyranosyl)-4-(4-{4-[bis(2-chloroethyl)amino]phenyl}butanamido)benzamide] | 4 ± 2 | 3 ± 2 | 1.4 ± 0.3 | 5 ± 2 | 7 ± 3 | 2.7 ± 0.6 | 300 ± 100 | 1700 ± 300 | 4.6 ± 0.3
3 | CC(=O)OC[C@H]1O[C@@H](NC(=O)CCCNC(=O)CCCc2ccc(N(CCCl)CCCl)cc2)[C@H](F)[C@@H](OC(C)=O)[C@@H]1OC(C)=O [Compound 22a, N-[4-(3,4,6-tri-O-acetyl-2-deoxy-2-fluoro-β-D-glucopyranosylamino)-4-oxobutyl]-4-{4-[bis(2-chloroethyl)amino]phenyl}butanamide] | 4.1 ± 0.1 | 9 ± 2 | 3 ± 1 | 12 ± 1 | 9 ± 3 | 13 ± 5 | 270 ± 40 | – | –
4 | CC(=O)OC[C@H]1O[C@@H](NC(=O)CCNC(=O)CCCc2ccc(N(CCCl)CCCl)cc2)[C@H](F)[C@@H](OC(C)=O)[C@@H]1OC(C)=O [Compound 31a, N-[3-(3,4,6-tri-O-acetyl-2-deoxy-2-fluoro-β-D-glucopyranosylamino)-3-oxopropyl]-4-{4-[bis(2-chloroethyl)amino]phenyl}butanamide] | 7 ± 5 | 11 ± 4 | 3.7 ± 0.3 | 13 ± 5 | 15 ± 3 | 9.2 ± 0.5 | 240 ± 80 | – | –
5 | CC(=O)OC[C@H]1O[C@@H](Oc2ccc(NC(=O)CCCc3ccc(N(CCCl)CCCl)cc3)cc2)[C@H](F)[C@@H](OC(C)=O)[C@@H]1OC(C)=O [Compound 37a, N-[4-(3,4,6-tri-O-acetyl-2-deoxy-2-fluoro-β-D-glucopyranosyloxy)phenyl]-4-{4-[bis(2-chloroethyl)amino]phenyl}butanamide] | > 50 | 10 ± 5 | 11 ± 4 | 26 ± 11 | > 50 | 1.9 ± 0.01 | 760 ± 60 | – | –
